# How the values were obtained:
# [1] = Solubility and release of Retinol / Retinol 50C in water; assay type: physicochemical; settings: 37° C., 150 rpm, after 20 days release from a nanoporous material
# Procedure: As a mesoporous silica material, AMS-6 was selected in this example, having an Ia3d cubic pore structures, and a small pore diameter (around 4 nm average). Prior to the loading, AMS-6 was thermally treated in order to increase the hydrophobic of the inner/outer surface. 10 grams of calcined AMS-6 were placed in an oven and heated at 600° C. during 12 hours. The selected active ingredient was Retinol 50C. Retinol 50C is a formulation comprising pure Retinol and an excipient namely Polisorbate 20 used as stabilizer. […] The percentage of each component in the formulation is 50% in weight.
# [2] = cited from earlier work
# [3] = cited from earlier work; remark: listed apart in the source
# [4] = Dissolution / kinetic release of atazanavir from nanoporous silica in simulated intestine fluid (SIF); assay type: physicochemical
# Procedure: In order to compare the concentrations of atazanavir crystallite and atazanavir in nanoporous silica, the UV absorbance scans of atazanavir in SIF with the time are shown in FIG. 1. […] The atazanavir super-saturating solutions from the nanoporous silica. […] Particularly, the super-saturating state produced from NFM-1 could be maintain for 24 hours, and the other two could maintain for 7 hours.
# For nanoporous material NFM-1 loaded with ATV, the dissolution rate appears to decrease with increased particle concentration as a percentage of loaded amount. […] In the case of the highest particle concentration, a supersaturation state is maintained for 4 hours after which the dissolution decreases rapidly due to crystallization of the drug in the water bath in which the dissolution study is conducted.
SMILES,concentration of Retinol dissolved in water [1] [ng/mL],reduction in plasma concentration (Cmin) ([2]; co-administered with proton pump inhibitors) [%],bioavailability ([2]; in vivo),half-life ([2]; in vivo) [h],log P [3],solubility in SIF (in words) ([4]; UV absorbance over time),"solubility at 4 h ([4]; simulated intestine fluid (SIF), fassgf or other biorelevant, thermodynamic from solid, after 4 hours, higher concentration of NFM-1-ATV particles, read-out: maximum solubility) [µg/mL]"
CC1=C(/C=C/C(C)=C/C=C/C(C)=C/CO)C(C)(C)CCC1 [Retinol],3400,,,,,,
COC(=O)N[C@H](C(=O)N[C@@H](Cc1ccccc1)[C@@H](O)CN(Cc1ccc(-c2ccccn2)cc1)NC(=O)[C@@H](NC(=O)OC)C(C)(C)C)C(C)(C)C [Atazanavir],,≤ 78,60-68%,6.5,5.20,very low,0.254

# From patent US9757456B2, “Super-saturating delivery vehicles for poorly water-soluble pharmaceutical and cosmetic active ingredients and suppression of crystallization of pharmaceutical active ingredients” (Nanologica AB, priority 2010, dated 2017)
